This is an account of results in a flash point compilation (Sun et al. 2020).

As for `CCCC#CCCCCCC` [4-undecyne], the flash point turned out to be 66 °C.

As to `C=CC1CC=CCC1` (stereo unspecified) [4-vinyl-1-cyclohexene], the flash point was found to be 16 °C.

With `CC=C1CC2C=CC1C2` (stereo unspecified) [5-ethylidene-2-norbornene], the flash point stood at 29 °C.

`C=CCCCCO` [5-hexen-1-ol] gave a flash point of 47 °C.

Turning to `C#CCCC(C)C` [5-methyl-1-hexyne], the flash point was -7 °C.

For `CC(=O)CCC(C)C` [5-methyl-2-hexanone], the flash point was determined as 36 °C.

`CC1CCCC(=O)CCC1` [5-methylcyclooctanone] gave a flash point of 71 °C.

In turn, `CCCCC#CCCCCC` [5-undecyne] registered a flash point of 66 °C.

`CCC#CCCCCCCCl` [10-chloro-3-decyne] registered a flash point of 86 °C.

On to `NCC1CCCCC1` [(aminomethyl)cyclohexane], for which the flash point came to 43 °C.

In turn, `CCN(CC)C(C)=O` [N,N-diethylacetamide] yielded a flash point of 76 °C.

Regarding `CN(C)C=O` [N,N-dimethylformamide], the flash point amounted to 57 °C.

`CCN(C)C` [N-ethyldimethylamine] registered a flash point of -36 °C.

Take `CCNC=O` [N-ethylformamide]: the flash point is 86 °C.

`CCCCNC` [N-methylbutylamine] had a flash point of 2 °C.

In the case of `CNC(C)C` [N-methylisopropylamine], the flash point was -20 °C.

For `CN1CCOCC1` [N-methylmorpholine], the flash point is 14 °C.

On to `CCC(C)Nc1ccccc1` (stereo unspecified) [N-sec-butylaniline], for which the flash point is 93 °C.

In the case of `C=CN(C)C(C)=O` [N-vinyl-N-methylacetamide], the flash point was 63 °C.

As to `CC(=O)O` [aceticacid], the flash point stood at 40 °C.

`CC(C)=O` [acetone] returned a flash point of -20 °C.

The compound `CC#N` [acetonitrile] came in with a flash point of 2 °C.

`CC(=O)c1ccccc1` [acetophenone] yielded a flash point of 77 °C.

For `C=CCN` [allylamine], the flash point is -28 °C.

With `C=CCOC(=O)CCC` [allylbutanoate], the flash point was determined as 42 °C.

The compound `C=CCOc1ccccc1` [allylphenylether] gave a flash point of 63 °C.

Regarding `C=CCSCCC` [allylpropylsulfide], the flash point is 29 °C.

`Nc1ccccc1` [aniline] came in with a flash point of 70 °C.

The compound `O=Cc1ccccc1` [benzaldehyde] returned a flash point of 62 °C.

For `Sc1ccccc1` [benzenethiol], the flash point was 51 °C.

`N#Cc1ccccc1` [benzonitrile]: the flash point came out at 70 °C.

As to `NCc1ccccc1` [benzylamine], the flash point was 65 °C.

`ClCc1ccccc1` [benzylchloride]: the flash point was found to be 60 °C.

As for `COCc1ccccc1` [benzylmethylether], the flash point came to 53 °C.

`CSCc1ccccc1` [benzylmethylsulfide] had a flash point of 73 °C.

On to `CCC(=O)OCc1ccccc1` [benzylpropanoate], for which the flash point came to 96 °C.

`COCCNCCOC` [bis(2-methoxyethyl)amine]: the flash point came to 58 °C.

For `Brc1ccccc1` [bromobenzene], the flash point turned out to be 51 °C.

`BrC1CCCCC1` [bromocyclohexane] came in with a flash point of 62 °C.

The compound `CCBr` [bromoethane] gave a flash point of -20 °C.

For the compound `CCCC=O` [butanal], the flash point was -7 °C.

In the case of `CCCC(=O)O` [butanoicacid], the flash point came out at 69 °C.

As for `CCCCOC(C)=O` [butylacetate], the flash point was 25 °C.

`CCCCC1CCCC1` [butylcyclopentane]: the flash point turned out to be 32 °C.

Regarding `CCCCOC=O` [butylformate], the flash point came to 18 °C.

For `CCCCOC` [butylmethylether], the flash point is -10 °C.

Turning to `CCCCOC(=O)CC` [butylpropanoate], the flash point is 38 °C.

As for `CCCC#N` [butyronitrile], the flash point is 18 °C.

In turn, `Clc1ccccc1` [chlorobenzene] returned a flash point of 28 °C.

`ClC1CCCC1` [chlorocyclopentane] gave a flash point of 15 °C.

Consider `C[C@H]1CC[C@@H](C)CC1` [cis-1,4-dimethylcyclohexane], for which the flash point was 6 °C.

Regarding `C/C=C\CCCC` [cis-2-heptene], the flash point was -6 °C.

`C/C=C\CCC` [cis-2-hexene] yielded a flash point of -25 °C.

As to `CC/C=C\CCC` [cis-3-heptene], the flash point was -9 °C.

Consider `CCC/C=C\CCC` [cis-4-octene], for which the flash point stood at 17 °C.

The compound `C1CC[C@H]2CCCC[C@H]2C1` [cis-decalin] yielded a flash point of 57 °C.

Compound `NC1CCC1` [cyclobutylamine] returned a flash point of -4 °C.

Take `O=C1CCCCCC1` [cycloheptanone]: the flash point stood at 56 °C.

`O=CC1CCCCC1` [cyclohexanecarboxaldehyde]: the flash point turned out to be 41 °C.

In turn, `OC1CCCCC1` [cyclohexanol] yielded a flash point of 63 °C.

Compound `O=C1CCCCC1` [cyclohexanone] showed a flash point of 43 °C.

`C1CCC2OC2C1` (stereo unspecified) [cyclohexeneoxide]: the flash point turned out to be 24 °C.

In turn, `C=C(C)C(=O)OC1CCCCC1` [cyclohexylmethacrylate] had a flash point of 82 °C.

The compound `CCC(=O)OC1CCCCC1` [cyclohexylpropanoate] had a flash point of 68 °C.

With `C1CCCCCCCC1` [cyclononane], the flash point came out at 43 °C.

In the case of `OC1CCCC1` [cyclopentanol], the flash point worked out at 51 °C.

In turn, `COC1CCCC1` [cyclopentylmethylether] had a flash point of -1 °C.

In turn, `NC1CC1` [cyclopropylamine] gave a flash point of -25 °C.

In turn, `CCCCCCCCCC=O` [decanal] showed a flash point of 83 °C.

As to `CCCCCCCCCC#N` [decanenitrile], the flash point worked out at 92 °C.

In the case of `CCCCCCCCCCOC(C)=O` [decylacetate], the flash point came to 104 °C.

Regarding `CCC(C)SC(C)CC` (stereo unspecified) [di-sec-butylsulfide], the flash point stood at 39 °C.

The compound `CC(C)(C)SC(C)(C)C` [di-tert-butylsulfide] showed a flash point of 27 °C.

Turning to `C=CCSSCC=C` [diallyldisulfide], the flash point was 62 °C.

The compound `C=CCOCC=C` [diallylether] gave a flash point of -7 °C.

On to `CCOCOCC` [diethoxymethane], for which the flash point was -5 °C.

In the case of `CCOC(=O)OCC` [diethylcarbonate], the flash point turned out to be 33 °C.

The compound `CCSSCC` [diethyldisulfide] displayed a flash point of 39 °C.

Take `CCOCC` [diethylether]: the flash point was -40 °C.

`CCSCC` [diethylsulfide] returned a flash point of -10 °C.

As to `CC(C)CNCC(C)C` [diisobutylamine], the flash point was found to be 30 °C.
